The source made the active and inactive calls. The rule behind the calls is not given here.
Tests used:
[1] = test system: Mus musculus; assay: Antitumor activity in doxorubicin-sensitive Brca1 and p53 deficient mouse mammary tumor cell xenografted mouse hereditary breast cancer model at 25 mg/kg, iv; assay type: functional, organism-based; set-up: dose 25 mg/kg
[2] = Antitumor activity in Brca1 and p53 deficient mouse mammary tumor cell xenografted mouse hereditary breast cancer model assessed as median survival at 25 mg/kg, iv; assay type: functional
[3] = test system: Mus musculus; assay: Antitumor activity in Brca1 and p53 deficient K14cre mouse hereditary breast cancer model at 25 mg/kg, iv; assay type: functional, organism-based; set-up: dose 25 mg/kg
[4] = test system: T*23; assay: Antitumor activity in doxorubicin-resistant Brca1 and p53 deficient mouse mammary tumor T*23 cell xenografted mouse hereditary breast cancer model at 25 mg/kg, iv; assay type: functional, organism-based; set-up: dose 25 mg/kg
[5] = Antitumor activity in Brca1 and p53 deficient mouse mammary tumor cell xenografted mouse hereditary breast cancer model assessed as median survival at 5 mg/kg, iv; assay type: functional
[6] = test system: Mus musculus; assay: Antitumor activity in Brca1 and p53 deficient K14cre mouse hereditary breast cancer model at 5 mg/kg, iv; assay type: functional, organism-based; set-up: dose 5 mg/kg

Row | Compound | Activity [1] | Survival [2] [days] | Activity [3] | Activity [4] | Survival [5] [days] | Activity [6]
1 | CC(=O)O[C@@]12CO[C@@H]1C[C@H](O)[C@@]1(C)C(=O)[C@H](O)C3=C(C)[C@@H](OC(=O)[C@H](O)[C@@H](NC(=O)OC(C)(C)C)c4ccccc4)C[C@@](O)([C@@H](OC(=O)c4ccccc4)[C@H]21)C3(C)C.O.O.O [DOCETAXEL] | Active | 44 | Active | inactive |  | 
2 | COc1cccc2c1C(=O)c1c(O)c3c(c(O)c1C2=O)C[C@@](O)(C(=O)CO)C[C@@H]3O[C@H]1C[C@H](N)[C@H](O)[C@H](C)O1 [DOXORUBICIN] |  |  |  |  | 63 | Active

— ChEMBL document CHEMBL1156488, “Selective induction of chemotherapy resistance of mammary tumors in a conditional mouse model for hereditary breast cancer” (2007)
